Reference: patent US7074742B2, “Pyridinyl amides and imides for use as fungicides” (E. I. du Pont de Nemours and Company, priority 2000, dated 2006)
Marks after values point to notes of the source that are not given here.

How the values were obtained:
Type in all cases: in vivo
[1] = system: Plasmopara viticola; test: TEST G: curative spray on inoculated grape seedlings, grape downy mildew, disease rating; conditions: for curative utility: curative (post-infection) use, especially for grape downy mildew, statement in words; for Test G disease control rating (grape downy mildew, curative): curative spray on inoculated grape seedlings
[2] = system: Pyricularia oryzae; conditions: preventive spray on rice seedlings; 100 = 100% disease control, 0 = no control; concentration not marked in table
[3] = system: Phytophthora infestans; conditions: preventive spray on tomato seedlings; 100 = 100% disease control, 0 = no control; concentration not marked in table
[4] = system: Plasmopara viticola; test: TEST E: preventive spray on grape seedlings, grape downy mildew, disease rating; conditions: 100 = 100% disease control, 0 = no control, concentration not marked in table
[5] = system: Puccinia recondita; test: TEST B: preventive spray on wheat seedlings, wheat leaf rust, disease rating; conditions: 100 = 100% disease control, 0 = no control, concentration not marked in table
[6] = system: Erysiphe graminis f. sp. tritici; test: TEST A: preventive spray on wheat seedlings, wheat powdery mildew, disease rating; conditions: 100 = 100% disease control, 0 = no control relative to controls, concentration not marked in table
[7] = system: Phytophthora infestans; conditions: curative spray; 100 ppm on potato seedlings
[8] = concentration not marked in table

Question: How did the curative utility [1] turn out when `CC(NC(=O)c1c(Cl)ccnc1Cl)c1ncc(C(F)(F)F)cc1Cl` (racemic) [Compound 30] was run?
Answer: significant curative utility

Question: And the “Test G disease control rating (grape downy mildew, curative)” value (“Test G disease control rating” below) ([1]; 100 ppm)?
Answer: 100* %

Question: And the “Test C disease control rating (rice blast)” value (shortened to “Test C disease control rating”) [2]?
Answer: 0%

Question: What about the “Test D disease control rating (potato and tomato late blight)” value (shortened to “Test D disease control rating”) [3] of the same compound?
Answer: 100%

Question: And the “Test E disease control rating (grape downy mildew)” value (“Test E disease control rating” for short) [4]?
Answer: 100%

Question: What does the source list for `CC(NC(=O)c1c(Cl)ccnc1Cl)c1ncc(Cl)cc1Cl` (racemic) [Compound 36]?
Answer: curative utility [1]: significant curative utility; Test G disease control rating (grape downy mildew, curative) [1, 8]: 100%; Test C disease control rating (rice blast) [2]: 0%; Test D disease control rating (potato and tomato late blight) [3]: 100%; Test E disease control rating (grape downy mildew) [4]: 100%; Test B disease control rating (wheat leaf rust) [5]: 38%; Test A disease control rating (wheat powdery mildew) [6]: 0%

Question: For `CC(NC(=O)c1c(Cl)ccnc1Cl)c1ncc(Br)cc1Cl` (racemic) [Compound 37], which curative utility [1] is on record?
Answer: significant curative utility

Question: What about the “Test G disease control rating” value [1, 8] of the same compound?
Answer: 100%

Question: What about the “Test C disease control rating” value [2] of the same compound?
Answer: 0%

Question: What about the “Test D disease control rating” value [3] of the same compound?
Answer: 100%

Question: And the “Test E disease control rating” value [4]?
Answer: 100%

Question: And the “Test B disease control rating (wheat leaf rust)” value [5]?
Answer: 19%

Question: What about the “Test A disease control rating (wheat powdery mildew)” value [6] of the same compound?
Answer: 0%

Question: For `O=C(NCc1ncc(C(F)(F)F)cc1Cl)c1c(Cl)ccnc1Cl` [Compound 28], which curative utility [1] is on record?
Answer: significant curative utility

Question: And the “Test G disease control rating” value ([1]; 100 ppm)?
Answer: 37* %

Question: And the “Test C disease control rating” value [2]?
Answer: 0%

Question: What about the “Test D disease control rating” value [3] of the same compound?
Answer: 100%

Question: And the “Test F disease control rating (late blight, curative)” value [7]?
Answer: 97# %

Question: And the “Test E disease control rating” value [4]?
Answer: 100%

Question: Which curative utility [1] does the source give for `Cc1cnc(Cl)c(C(=O)NCc2ncc(C(F)(F)F)cc2Cl)c1Cl` [Compound 29] here?
Answer: significant curative utility

Question: And the “Test G disease control rating” value ([1]; 100 ppm)?
Answer: 100* %

Question: And the “Test C disease control rating” value [2]?
Answer: 0%

Question: And the “Test D disease control rating” value [3]?
Answer: 100%

Question: What about the “Test E disease control rating” value [4] of the same compound?
Answer: 100%

Question: What does the source list for `C[C@@H](NC(=O)c1c(Cl)ccnc1Cl)c1ncc(C(F)(F)F)cc1Cl` [Compound 31, 2,4-dichloro-N-[(1R)-1-[3-chloro-5-(trifluoromethyl)-2-pyridinyl]ethyl]-3-pyridinecarboxamide]?
Answer: curative utility [1]: significant curative utility; Test G disease control rating (grape downy mildew, curative) ([1]; 20 ppm): 100** %; Test C disease control rating (rice blast) [2]: 0%; Test D disease control rating (potato and tomato late blight) [3]: 100%; Test E disease control rating (grape downy mildew) [4]: 100%

Question: `O=C(NCc1ncc(C(F)(F)F)cc1Cl)c1c(Cl)cncc1Cl` [Compound 35] was tested. Which curative utility [1] did it give?
Answer: significant curative utility

Question: What about the “Test G disease control rating” value ([1]; 100 ppm) of the same compound?
Answer: 100* %

Question: What about the “Test D disease control rating” value [3] of the same compound?
Answer: 100%

Question: What about the “Test E disease control rating” value [4] of the same compound?
Answer: 100%

Question: What about the “Test B disease control rating (wheat leaf rust)” value [5] of the same compound?
Answer: 30%

Question: And the “Test A disease control rating (wheat powdery mildew)” value [6]?
Answer: 0%
